Experimental data reported in PubChem BioAssay AID2060601 (Molecular Pharmacology Branch, DTP, NCI, 2025).

System: 874868-142-R-J2-PDC complex spheroids, growth % test/control
Test: Anticancer human tumor 874868-142-R-J2-PDC patient-derived head and neck squamous carcinoma cell line growth inhibition [CLK]
Conditions: for IC50: curve of first compound; for viability, T/C: stronger effect = lower value; active = viability on the fitted dose curve at most 10% of control; inactive = the rest
Source text: A high-throughput screen of multi-cell type tumor spheroids was designed to identify active combinations of […] and targeted small molecules. Complex spheroids include a stromal component modeled by human endothelial cells (HUVEC) and fibroblasts modeled by human mesenchymal stem cells (MSCs). The concentration ranges selected for each drug and investigational agent were based upon clinically achievable concentrations if the clinical Cmax of the agent was known.
Compounds. The drugs and investigational agents: cirtuvivint (SM08502; NSC835563), CC-671 (NSC850746), vemurafenib (NSC761431), tapotoclax (NSC804041), sotorasib (NSC818433), adagrasib (NSC831453), MRTX-1133 (NSC836407), BAY2416964 (NSC825713), copanlisib (NSC816437), inavolisib (NSC800729), abemaciclib (NSC768073), osimertinib (NSC779217), entinostat (NSC756642), eltanexor (KPT-8602, NSC794443), venetoclax (NSC766270), ceralasertib (NSC777638), bortezomib (NSC756655), olaparib (NSC753686), talazoparib (NSC767125), alisertib (NSC759677), peposertib (NSC802822), gemcitabine (NSC613327), 5-fluorouracil (NSC19893), SN-38 (NSC673596), oxaliplatin (NSC266046), paclitaxel (NSC125973), and doxorubicin (NSC123127), were obtained from the National Cancer Institute (NCI) Developmental Therapeutics Program Chemical Repository. The FDA-approved anticancer drug set is available from the Developmental Therapeutics Program at https://dtp.cancer.gov/organization/dscb/obtaining/available plates.htm. […] The stock solutions were prepared in dimethyl sulfoxide (DMSO, Sigma-Aldrich, St. Louis, MO, cat. D2650), except for the platinum complexes which were prepared in saline (Quality Biological, Gaithersburg, MD, cat. 114-055-101), at 800-fold the tested concentration and stored at -70 degrees C prior to their use. All drugs and investigational agents were tested over a range starting from a high concentration at or near the clinical Cmax and decreasing in half-log increments. If the clinical Cmax for an agent had not been determined, the highest concentration tested was 10 microM.
Cell Culture. All cells were maintained in an incubator at 37 degrees C and 5% CO2 with 95% humidity. The PDC lines were cultured according to standard operating procedures established by the NCI PDMR. Briefly, all PDCs were thawed and cultured in Matrigel-coated flasks prepared with a working solution of 1X Ham's F-12 nutrient mix, without supplementation (Invitrogen, Waltham, MA, cat. 11765054), 100 U/mL penicillin-streptomycin (Invitrogen, cat. 15140122), and 2.5% Matrigel (Corning Inc., Corning, NY, cat. 354248) for the first three passages. The 947758-054-R-J2-PDC line was cultured in 6B/Colon 1A media, which includes advanced DMEM/F-12 (Thermo Fisher Scientific, cat. 12634028), 10 mM HEPES (Thermo Fisher Scientific, cat. 15630080), 1X GlutaMAX supplement (Thermo Fisher Scientific, cat. 35050061), 0.1 mg/mL primocin (InvivoGen, cat. ant-pm-2), 10% defined fetal bovine serum, heat inactivated (HyClone Laboratories Inc., cat. SH30070.03HI), 1.25 mM N-Acetyl-L-cysteine (Sigma-Aldrich, cat. A9165), 10 mM nicotinamide (Sigma-Aldrich, cat. N0636), 1X B-27 supplement (Thermo Fisher Scientific, cat. 17504044), 1X N-2 supplement (Thermo Fisher Scientific, cat. 17502048), and 10 microM Y-27632 dihydrochloride (Tocris Bioscience, cat. 1254). The 876862-298-R-J1-PDC was cultured in 6E media, which includes all 6B/Colon 1A media components plus 50% L-WRN conditioned media (ATCC, cat. CRL-3276), 50 ng/mL recombinant human EGF recombinant protein (hEGF; Thermo Fisher Scientific, cat. PHG0311), 10 ng/mL recombinant human fibroblast growth factor 10 (hGFG-10; PeproTech, cat. 100-26), 1 ng/mL recombinant human fibroblast growth factor 2 (hFGF-2; PeproTech, cat. 100-18B), and 1 µM prostaglandin E2 (PGE2; Tocris, cat. 2296). The 227483-062-R1-J1-PDC line was cultured in Panc media, containing all 6E components except hFGF-2, with the addition of 500 nM SB-431542 (Selleckchem, cat. S1067) and 10 nM gastrin (Tocris, cat. 3006). […]

[1] = second compound 0.0316 µM, first compound 0.0316 µM
[2] = second compound 0.0316 µM, first compound 0.1 µM
[3] = second compound 0.0316 µM, first compound 0.316 µM
[4] = second compound 0.0316 µM, first compound 1 µM
[5] = second compound 0.0316 µM, first compound 3.16 µM
[6] = second compound 0.0316 µM, first compound 10 µM
[7] = second compound 0.1 µM, first compound 0.0316 µM
[8] = second compound 0.1 µM, first compound 0.1 µM
[9] = second compound 0.1 µM, first compound 0.316 µM
[10] = second compound 0.1 µM, first compound 1 µM
[11] = second compound 0.1 µM, first compound 3.16 µM
[12] = second compound 0.1 µM, first compound 10 µM
[13] = second compound 0.316 µM, first compound 0.0316 µM
[14] = second compound 0.316 µM, first compound 0.1 µM
[15] = second compound 0.316 µM, first compound 0.316 µM
[16] = second compound 0.316 µM, first compound 1 µM
[17] = second compound 0.316 µM, first compound 3.16 µM
[18] = second compound 0.316 µM, first compound 10 µM
[19] = second compound 1 µM, first compound 0.0316 µM
[20] = second compound 1 µM, first compound 0.1 µM
[21] = second compound 1 µM, first compound 0.316 µM
[22] = second compound 1 µM, first compound 1 µM
[23] = second compound 1 µM, first compound 3.16 µM
[24] = second compound 1 µM, first compound 10 µM
[25] = second compound 3.16 µM, first compound 0.0316 µM
[26] = second compound 3.16 µM, first compound 0.1 µM
[27] = second compound 3.16 µM, first compound 0.316 µM
[28] = second compound 3.16 µM, first compound 1 µM
[29] = second compound 3.16 µM, first compound 3.16 µM
[30] = second compound 3.16 µM, first compound 10 µM
[31] = second compound 10 µM, first compound 0.0316 µM
[32] = second compound 10 µM, first compound 0.1 µM
[33] = second compound 10 µM, first compound 0.316 µM
[34] = second compound 10 µM, first compound 1 µM
[35] = second compound 10 µM, first compound 3.16 µM
[36] = second compound 10 µM, first compound 10 µM
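Note: spheroids exposed to the compounds for 7 days.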

C=CC(=O)N1CCN(c2nc(=O)n(-c3c(C)ccnc3C(C)C)c3nc(-c4c(O)cccc4F)c(F)cc23)C(C)C1 (centres undefined) + CN1CCN(c2cc(C(=O)Nc3cc4cc(-c5cnn(C)c5)ccc4cn3)ccn2)CC1
inactive: viability, T/C [1] 86.4% | viability, T/C [2] 98.4% | viability, T/C [3] 96.1% | viability, T/C [4] 131% | viability, T/C [5] 129% | viability, T/C [6] 125% | viability, T/C [7] 81% | viability, T/C [8] 73.3% | viability, T/C [9] 82.2% | viability, T/C [10] 86.3% | viability, T/C [11] 93.9% | viability, T/C [12] 109% | viability, T/C [13] 16.9% | viability, T/C [14] 16.9% | viability, T/C [15] 21.9% | viability, T/C [16] 11.1% | viability, T/C [17] 17.8% | viability, T/C [18] 12.2%
active: viability, T/C [19] 0.5% | viability, T/C [20] 0.38% | viability, T/C [21] 0.54% | viability, T/C [22] 2.26% | viability, T/C [23] 0.49% | viability, T/C [24] 0.41% | viability, T/C [25] 0.17% | viability, T/C [26] 2.77% | viability, T/C [27] 1.11% | viability, T/C [28] 0.43% | viability, T/C [29] 0.45% | viability, T/C [30] 0.24% | viability, T/C [31] 0.68% | viability, T/C [32] 0.21% | viability, T/C [33] 1.43% | viability, T/C [34] 0.18% | viability, T/C [35] 0.17% | viability, T/C [36] 3.04%
< 31.6 nM: IC50 (second compound 0.316 µM) | IC50 (second compound 1 µM) | IC50 (second compound 3.16 µM) | IC50 (second compound 10 µM)
> 10000 nM: IC50 (second compound 0.0316 µM) | IC50 (second compound 0.1 µM)

COC1C=CCC(C)C(C)S(=O)(=O)NC(=O)c2ccc3c(c2)N(CC2CCC21)CC1(CCCc2cc(Cl)ccc21)CO3 (centres undefined) + CN1CCN(c2cc(C(=O)Nc3cc4cc(-c5cnn(C)c5)ccc4cn3)ccn2)CC1
active: viability, T/C [12] 8.09% | viability, T/C [16] 6.03% | viability, T/C [17] 6.07% | viability, T/C [18] 5.99% | viability, T/C [19] 0.48% | viability, T/C [20] 0.33% | viability, T/C [21] 1.14% | viability, T/C [22] 0.2% | viability, T/C [23] 2.7% | viability, T/C [24] 1.73% | viability, T/C [25] 0.85% | viability, T/C [26] 0.74% | viability, T/C [27] 0.27% | viability, T/C [28] 0.44% | viability, T/C [29] 0.33% | viability, T/C [30] 1.12% | viability, T/C [31] 0.79% | viability, T/C [32] 0.24% | viability, T/C [33] 0.61% | viability, T/C [34] 0.22% | viability, T/C [35] 1.51% | viability, T/C [36] 0.24%
inactive: viability, T/C [1] 101% | viability, T/C [2] 93.2% | viability, T/C [3] 66.2% | viability, T/C [4] 60.8% | viability, T/C [5] 34.7% | viability, T/C [6] 18.2% | viability, T/C [7] 77.1% | viability, T/C [8] 74.3% | viability, T/C [9] 65.2% | viability, T/C [10] 56.1% | viability, T/C [11] 15.2% | viability, T/C [13] 21.6% | viability, T/C [14] 14.9% | viability, T/C [15] 11.8%
< 31.6 nM: IC50 (second compound 0.316 µM) | IC50 (second compound 1 µM) | IC50 (second compound 3.16 µM) | IC50 (second compound 10 µM)
1150 nM: IC50 (second compound 0.1 µM)
1390 nM: IC50 (second compound 0.0316 µM)
